Assay results as given in ChEMBL document CHEMBL3886531, “Dihydropyrrolopyrimidine derivatives” (2016).

Target: PI3-kinase p110-alpha/p85-alpha (Homo sapiens, UniProt P42336)
Experiment: Biochemical Assay: PI3KA_FL: Genes encoding for full length p110alpha and p85alpha subunits of PI3Kalpha complex were subcloned from existing constructs into pFASTBAC Dual vector (Life Technologies, Carlsbad, Calif.) using standard cloning procedures. Gene encoding p110alpha subunit was subcloned into polyhedrine promoter while gene encoding p85alpha subunit was subcloned into p10 promoter. Additionally, sequence encoding for histidine tag and Tobacco Etch Virus ("TEV") cleavage site preceded p110alpha ORF (Open Reading Frame). The biochemical assays of kinase activity of full-length PI3Kalpha (full-length p110alpha/p85a) or truncated PI3Kalpha (p110alpha/iSH2 p85a) were conducted using a fluorescence polarization format similar to the procedure of Yuan J., et al., (2011) PF-04691502, a Potent and Selective Oral Inhibitor of PI3K and mTOR Kinases with Antitumor Activity, Mol Cancer Ther. 10, 2189-2199. The enzymatic reactions were conducted in 50 uL volumes in 96-well plates.
Format: protein-complex assay

Chain of PI3-kinase p110-alpha/p85-alpha (P27986 whole entry, the tested form may be a part): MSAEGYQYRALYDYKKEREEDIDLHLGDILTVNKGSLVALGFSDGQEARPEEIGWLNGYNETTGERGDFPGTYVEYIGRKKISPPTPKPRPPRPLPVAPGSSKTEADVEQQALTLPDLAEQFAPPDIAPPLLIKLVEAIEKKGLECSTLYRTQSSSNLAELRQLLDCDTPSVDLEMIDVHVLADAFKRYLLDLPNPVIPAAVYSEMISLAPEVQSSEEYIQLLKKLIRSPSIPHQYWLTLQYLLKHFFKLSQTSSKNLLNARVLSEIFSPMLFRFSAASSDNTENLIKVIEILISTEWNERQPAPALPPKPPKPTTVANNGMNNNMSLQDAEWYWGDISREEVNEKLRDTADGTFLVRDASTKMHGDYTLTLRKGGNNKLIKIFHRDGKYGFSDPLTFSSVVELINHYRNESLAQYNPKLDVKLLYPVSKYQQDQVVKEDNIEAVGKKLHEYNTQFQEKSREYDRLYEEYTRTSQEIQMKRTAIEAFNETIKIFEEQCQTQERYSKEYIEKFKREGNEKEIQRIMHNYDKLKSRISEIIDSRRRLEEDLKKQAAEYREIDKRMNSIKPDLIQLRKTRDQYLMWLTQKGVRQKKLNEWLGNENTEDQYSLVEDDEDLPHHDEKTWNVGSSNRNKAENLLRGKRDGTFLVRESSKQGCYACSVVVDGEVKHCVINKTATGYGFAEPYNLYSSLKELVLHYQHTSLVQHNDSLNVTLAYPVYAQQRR
Chain of PI3-kinase p110-alpha/p85-alpha (P42336 whole entry, the tested form may be a part): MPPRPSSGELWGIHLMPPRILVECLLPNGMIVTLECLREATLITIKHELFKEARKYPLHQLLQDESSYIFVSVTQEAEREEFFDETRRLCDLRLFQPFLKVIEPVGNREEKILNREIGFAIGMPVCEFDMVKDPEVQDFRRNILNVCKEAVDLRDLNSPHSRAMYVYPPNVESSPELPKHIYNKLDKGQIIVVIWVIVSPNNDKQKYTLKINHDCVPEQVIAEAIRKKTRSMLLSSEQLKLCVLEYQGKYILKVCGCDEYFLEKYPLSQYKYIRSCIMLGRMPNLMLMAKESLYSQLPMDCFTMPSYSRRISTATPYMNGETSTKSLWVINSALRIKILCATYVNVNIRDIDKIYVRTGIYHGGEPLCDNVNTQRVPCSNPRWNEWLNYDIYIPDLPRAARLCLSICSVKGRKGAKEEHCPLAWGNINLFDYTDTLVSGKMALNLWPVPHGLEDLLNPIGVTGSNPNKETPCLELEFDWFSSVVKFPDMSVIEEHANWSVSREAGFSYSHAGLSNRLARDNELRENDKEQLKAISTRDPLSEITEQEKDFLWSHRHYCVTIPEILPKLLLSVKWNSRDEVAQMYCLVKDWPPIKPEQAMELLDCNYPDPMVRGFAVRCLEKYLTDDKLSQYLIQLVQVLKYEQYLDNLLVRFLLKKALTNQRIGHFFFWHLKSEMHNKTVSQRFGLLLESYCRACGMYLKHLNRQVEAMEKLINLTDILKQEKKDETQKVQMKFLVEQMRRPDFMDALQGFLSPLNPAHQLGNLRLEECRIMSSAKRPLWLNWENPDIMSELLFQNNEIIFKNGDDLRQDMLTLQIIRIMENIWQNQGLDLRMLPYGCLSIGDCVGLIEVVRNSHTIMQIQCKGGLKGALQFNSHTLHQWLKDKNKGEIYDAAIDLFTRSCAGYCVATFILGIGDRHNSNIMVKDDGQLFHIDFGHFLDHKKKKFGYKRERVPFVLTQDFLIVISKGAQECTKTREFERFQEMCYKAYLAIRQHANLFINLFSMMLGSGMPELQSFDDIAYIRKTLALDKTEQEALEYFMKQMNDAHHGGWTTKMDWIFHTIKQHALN

SMILES: CC(=O)N[C@H]1C(C)(C)[C@H](N2CCc3c(-c4cnc(N)nc4)nc(N4CCOCC4)nc32)C1(C)C
- Ki: 1.14 nM
